System: LuxArray 1.04 E. coli strains (luxCDABE gene fusions)
Experiment: LuxArray 1.04 limonene stress of the reporter array in liquid culture
Assay type: cell-based
Conditions: 80% saturated limonene in LB
Experimental: Microplates from −80° C. containing the LuxArray 1.04 E. coli strains were thawed and used to inoculate 100 μl LB medium supplemented with 100 μg/ml ampicillin in Costar#3595 flat bottomed 96-well microplates. Following overnight growth at 37° C., the plates were visually examined and any wells with little or no turbidity were recorded. Then these cultures were diluted by transfer of 15 μl to 135 μl LB medium in Costar #3595, flat bottom 96-well microplates and were moderately swirl shaken on an IKA Schuttler MTS 4 shaker at setting 400 for two hrs at 37° C. in a humidified box. Twenty μl of each these actively growing cultures were transferred to the corresponding well in sets of three microplates, one containing 80 μl of LB medium, another containing 80 μl of LB medium saturated with limonene at room temperature, and the third containing 40 μl of LB medium saturated with limonene and 40 μl of LB medium. An initial (zero time) reading was taken using an MLX microplate luminometer (Dynex) pre-warmed to 37° C. Then the plates were placed at 37° C. without shaking. Additional bioluminescent measurements were taken at 45, 90, and 135 minutes. To limit the number of microplates handled each day, LuxArray 1.04 microplates 1 to 5, microplates 6 to 10, microplates 11 to 15, and microplates […] were used on each of four different days.
The data were normalized to correct for growth-inhibition caused by limonene on the basis of each individual day that data was collected. The bioluminescence (RLU) of each individual culture for each day of experimentation under each of the three conditions, were added to determine the daily array total RLU. These were used to find a daily normalization factor (DNF) as follows:
DNF=Daily total array signal(time zero, LB control)/Daily total array signal(time x, condition y)
Each measurement from the corresponding day, time point, and condition was multiplied by DNF to yield a normalized signal. The data from wells that were scored to have little or no growth were not used in further analysis. The normalized data were analyzed with GeneSpring (Silicon Genetics) software, which averaged the signal from each of the duplicate cultures for each reporter gene fusion.
Thus, patterns of gene expression from the 80% saturated limonene in LB medium were further examined. […] These lists were examined and gene fusions with very low normalized RLU values (<0.012 RLU) at all conditions were eliminated. […] The designation of “>2X” is given for upregulation while “*” is listed if the expression was less than 2 fold increased. At 45 minutes, the expression of fourteen gene fusions was increased; none of these was increased 3 fold or higher. At 90 minutes, 37 gene fusions were induced; these included all but one of the gene fusions observed at 45 minutes. […] These were fusions of the luxCDABE reporter to the promoter regions of uhpT (3.8×), nirB (3.7×) and narK (3.6×). At 135 minutes, 39 gene fusions were induced, which included 13 fusions not observed at 45 or 90 minutes.

C=C(C)[C@H]1CC=C(C)CC1 [limonene]
upregulation of gene fusion (b2451 fusion, 135 minutes): >2X (The designation of “>2X” is given for upregulation)
upregulation of gene fusion (b2550 fusion, 45 minutes): * (“*” is listed if the expression was less than 2 fold increased)
upregulation of gene fusion (b2550 fusion, 90 minutes): >2X (The designation of “>2X” is given for upregulation)
upregulation of gene fusion (b2550 fusion, 135 minutes): * (“*” is listed if the expression was less than 2 fold increased)
upregulation of gene fusion (b2699 (recA) fusion, 45 minutes): * (“*” is listed if the expression was less than 2 fold increased)
upregulation of gene fusion (b2699 (recA) fusion, 90 minutes): >2X (The designation of “>2X” is given for upregulation)
upregulation of gene fusion (b2699 (recA) fusion, 135 minutes): >2X (The designation of “>2X” is given for upregulation)
upregulation of gene fusion (b2999 fusion, 45 minutes): >2X (The designation of “>2X” is given for upregulation)
upregulation of gene fusion (b2999 fusion, 90 minutes): * (“*” is listed if the expression was less than 2 fold increased)
upregulation of gene fusion (b2999 fusion, 135 minutes): * (“*” is listed if the expression was less than 2 fold increased)
upregulation of gene fusion (b3012 fusion, 45 minutes): >2X (The designation of “>2X” is given for upregulation)
upregulation of gene fusion (b3012 fusion, 90 minutes): >2X (The designation of “>2X” is given for upregulation)
upregulation of gene fusion (b3012 fusion, 135 minutes): >2X (The designation of “>2X” is given for upregulation)
upregulation of gene fusion (b3245 fusion, 45 minutes): * (“*” is listed if the expression was less than 2 fold increased)
upregulation of gene fusion (b3245 fusion, 90 minutes): >2X (The designation of “>2X” is given for upregulation)
upregulation of gene fusion (b3245 fusion, 135 minutes): >2X (The designation of “>2X” is given for upregulation)
upregulation of gene fusion (b3267 (yhdV) fusion, 45 minutes): * (“*” is listed if the expression was less than 2 fold increased)
upregulation of gene fusion (b3267 (yhdV) fusion, 90 minutes): >2X (The designation of “>2X” is given for upregulation)
upregulation of gene fusion (b3267 (yhdV) fusion, 135 minutes): >2X (The designation of “>2X” is given for upregulation)
upregulation of gene fusion (b3336 (bfr) fusion, 45 minutes): * (“*” is listed if the expression was less than 2 fold increased)
upregulation of gene fusion (b3336 (bfr) fusion, 90 minutes): >2X (The designation of “>2X” is given for upregulation)
upregulation of gene fusion (b3336 (bfr) fusion, 135 minutes): * (“*” is listed if the expression was less than 2 fold increased)
upregulation of gene fusion (b3365 (nirB) fusion, 45 minutes): * (“*” is listed if the expression was less than 2 fold increased)
upregulation of gene fusion (b3365 (nirB) fusion, 90 minutes): >2X (The designation of “>2X” is given for upregulation)
upregulation of gene fusion (b3365 (nirB) fusion, 135 minutes): >2X (The designation of “>2X” is given for upregulation)
upregulation of gene fusion (b3419 (yhgJ) fusion, 45 minutes): * (“*” is listed if the expression was less than 2 fold increased)
upregulation of gene fusion (b3419 (yhgJ) fusion, 90 minutes): >2X (The designation of “>2X” is given for upregulation)
upregulation of gene fusion (b3419 (yhgJ) fusion, 135 minutes): >2X (The designation of “>2X” is given for upregulation)
upregulation of gene fusion (b3666 (uhpT) fusion, 45 minutes): * (“*” is listed if the expression was less than 2 fold increased)
upregulation of gene fusion (b3666 (uhpT) fusion, 90 minutes): >2X (The designation of “>2X” is given for upregulation)
upregulation of gene fusion (b3666 (uhpT) fusion, 135 minutes): >2X (The designation of “>2X” is given for upregulation)
upregulation of gene fusion (b3904 (rhaB) fusion, 45 minutes): >2X (The designation of “>2X” is given for upregulation)
upregulation of gene fusion (b3904 (rhaB) fusion, 90 minutes): >2X (The designation of “>2X” is given for upregulation)
upregulation of gene fusion (b3904 (rhaB) fusion, 135 minutes): >2X (The designation of “>2X” is given for upregulation)
upregulation of gene fusion (b3942 (katG) fusion, 45 minutes): * (“*” is listed if the expression was less than 2 fold increased)
upregulation of gene fusion (b3942 (katG) fusion, 90 minutes): >2X (The designation of “>2X” is given for upregulation)
upregulation of gene fusion (b3942 (katG) fusion, 135 minutes): >2X (The designation of “>2X” is given for upregulation)
upregulation of gene fusion (b4043 (lexA) fusion, 45 minutes): * (“*” is listed if the expression was less than 2 fold increased)
upregulation of gene fusion (b4043 (lexA) fusion, 90 minutes): >2X (The designation of “>2X” is given for upregulation)
upregulation of gene fusion (b4043 (lexA) fusion, 135 minutes): * (“*” is listed if the expression was less than 2 fold increased)
upregulation of gene fusion (b4106 (phnC) fusion, 45 minutes): >2X (The designation of “>2X” is given for upregulation)
upregulation of gene fusion (b4106 (phnC) fusion, 90 minutes): >2X (The designation of “>2X” is given for upregulation)
upregulation of gene fusion (b4106 (phnC) fusion, 135 minutes): >2X (The designation of “>2X” is given for upregulation)
upregulation of gene fusion (b4264 (yjgS) fusion, 45 minutes): * (“*” is listed if the expression was less than 2 fold increased)
upregulation of gene fusion (b4264 (yjgS) fusion, 90 minutes): >2X (The designation of “>2X” is given for upregulation)
upregulation of gene fusion (b4264 (yjgS) fusion, 135 minutes): * (“*” is listed if the expression was less than 2 fold increased)
upregulation of gene fusion (b4392 (slt) fusion, 45 minutes): >2X (The designation of “>2X” is given for upregulation)
upregulation of gene fusion (b4392 (slt) fusion, 90 minutes): >2X (The designation of “>2X” is given for upregulation)
upregulation of gene fusion (b4392 (slt) fusion, 135 minutes): * (“*” is listed if the expression was less than 2 fold increased)
upregulation of gene fusion (fold) (katG promoter fusion, 135 minutes): 4.1 ×
upregulation of gene fusion (fold) (narK promoter fusion, 90 minutes): 3.6 ×
upregulation of gene fusion (fold) (nirB promoter fusion, 90 minutes): 3.7 ×
upregulation of gene fusion (fold) (nirB promoter fusion, 135 minutes): 4.1 ×
upregulation of gene fusion (fold) (uhpT promoter fusion, 90 minutes): 3.8 ×
upregulation of gene fusion (fold) (uhpT promoter fusion, 135 minutes): 7.7 ×
